Experimental data taken from the NIST ThermoML archive (doi:10.1021/je8007167).
Several values for one entry are separate records, joined by “and”; a condition that tells them apart may be missing. Equal values may be shown once.

Conditions: Crystal, Torsion effusion method

[F][Al]([F])[F] [aluminum fluoride]
Conditions | vapor or sublimation pressure
956 K | 0.000105 kPa
960 K | 0.000132 kPa
968 K | 0.000209 kPa
970 K | 0.000209 kPa
974 K | 0.000209 kPa
975 K | 0.000209 kPa
977 K | 0.000263 kPa
982 K | 0.000316 kPa
985 K | 0.000363 kPa
987 K | 0.000363 kPa
991 K | 0.000417 kPa and 0.000468 kPa
994 K | 0.000468 kPa
998 K | 0.000575 kPa
1001 K | 0.000631 kPa
1002 K | 0.000676 kPa
1007 K | 0.000724 kPa
1010 K | 0.000813 kPa
1013 K | 0.000933 kPa
1014 K | 0.000933 kPa
1018 K | 0.001122 kPa
1022 K | 0.001259 kPa
1023 K | 0.001259 kPa
1026 K | 0.001413 kPa
1029 K | 0.001549 kPa
1033 K | 0.00182 kPa
1036 K | 0.001862 kPa
1040 K | 0.002188 kPa
1043 K | 0.002512 kPa
1048 K | 0.002754 kPa
1052 K | 0.003162 kPa and 0.003236 kPa
1053 K | 0.003236 kPa
1059 K | 0.00389 kPa
1062 K | 0.004467 kPa
1063 K | 0.004365 kPa
1066 K | 0.005012 kPa
1070 K | 0.00537 kPa
1071 K | 0.005754 kPa
1074 K | 0.00631 kPa
1078 K | 0.006918 kPa
1083 K | 0.008128 kPa and 0.008318 kPa
1086 K | 0.008913 kPa
1089 K | 0.009333 kPa
1093 K | 0.01072 kPa
1097 K | 0.0123 kPa
1098 K | 0.01202 kPa
1100 K | 0.01288 kPa
1104 K | 0.01479 kPa
1107 K | 0.01549 kPa
1109 K | 0.01698 kPa
1112 K | 0.0182 kPa
1113 K | 0.01862 kPa

[Cl][Al]([Cl])[Cl] [aluminum chloride]
Conditions | vapor or sublimation pressure
321 K | 0.00017 kPa
323 K | 0.000234 kPa
327 K | 0.00038 kPa
329 K | 0.000525 kPa and 0.000513 kPa
330 K | 0.00055 kPa
333 K | 0.000676 kPa
334 K | 0.000891 kPa
336 K | 0.001023 kPa
338 K | 0.001622 kPa
339 K | 0.001622 kPa and 0.001585 kPa
340 K | 0.002089 kPa and 0.001862 kPa
342 K | 0.002455 kPa
343 K | 0.002951 kPa
344 K | 0.003388 kPa
345 K | 0.003631 kPa and 0.003715 kPa
346 K | 0.003981 kPa
347 K | 0.004898 kPa and 0.004266 kPa
348 K | 0.004786 kPa and 0.00537 kPa
349 K | 0.00631 kPa
350 K | 0.006761 kPa
351 K | 0.006761 kPa and 0.006457 kPa
352 K | 0.008318 kPa
353 K | 0.008318 kPa and 0.008913 kPa
354 K | 0.01072 kPa and 0.00912 kPa
355 K | 0.01202 kPa and 0.01175 kPa
356 K | 0.01175 kPa
358 K | 0.01445 kPa and 0.01585 kPa
362 K | 0.02399 kPa
363 K | 0.0263 kPa
366 K | 0.03715 kPa
368.5 K | 0.04898 kPa
369 K | 0.05129 kPa
372 K | 0.06918 kPa
373 K | 0.08511 kPa
376.5 K | 0.1175 kPa
378 K | 0.1288 kPa
